Laboratory results from patent US9333264B2, “Biocompatible polymeric nanoparticles degrade and release cargo in response to biologically relevant levels of hydrogen peroxide” (The Regents of the University of California, priority 2013, dated 2016).
Blank lines part the entries; values can stand above or below the compound they belong to.

Experiments:
[1] = Effect of H2O2 on the fluorescence of Nile red; type: physicochemical; settings: 72 h incubation with 1 mM hydrogen peroxide
Protocol: The fluorescence of the dye was quenched in aqueous environments, enabling use as a model compound to indicate small molecule release from the hydrophobic nanoparticle interior. Prior to the evaluation of controlled release from our materials, the stability of Nile Red fluorescence in hydrogen peroxide was tested to ensure that the fluorescence quenching observed is not a result of Nile Red exposure to hydrogen peroxide.
Nile red solutions of three different concentrations in acetone were prepared (10, 40, 160 ng/mL). Polymer 1 was dissolved in the Nile red solutions (polymer concentration in all Nile red solutions were constant at 125 μg/mL). Hydrogen peroxide was added to these solutions (concentration in Nile red solutions was constant at 1 mM). Changes in Nile red fluorescence were monitored over a 72 h period using the same instrument settings as reported previously. These experiments were run in duplicate.

[2] = cited from earlier work
[3] = test system: dMPRO cells; test: Extracellular hydrogen peroxide produced by neutrophils; type: cell-based, mouse; settings: 1.6×10^6 dMPRO cells, after 6 h of PMA treatment
Protocol: Activated neutrophils generate high ROS. Extracellular hydrogen peroxide produced by neutrophils (differentiated mouse promyleocytes or dMPRO cells) with and without PMA (phorbol 12 myristate 13 acetate) stimulation was measured.
After 6 h of PMA treatment, 1.6×10^6 dMPRO cells produced 6.5 μM H2O2, while untreated cells produced 4.5 μM H2O2. These extracellular levels of H2O2 were much lower than the levels previously seen for Polymer 2, however the concentration of H2O2 inside neutrophil granules appear to be much higher. Fluorescein diacetate (FDA), a non-fluorescent molecule which is cleaved to fluorescein (Ex490/Em520) by cellular esterases, was chosen for the release assay.

[4] = test system: Raw264.7 macrophages; test: ApoTox-Glo assay of viability, cytotoxicity and apoptosis; settings: staurosporine 5 μM for 5 h; Triton X-100 0.1% for 15 min
Protocol: In addition, this assay also measures caspase 3/7 activity as a readout for apoptosis (see, FIGS. 7A-7D). […] Staurosporine and 0.1% Triton-X 100 were used as positive controls for induction of apoptosis and cell death, respectively.
Raw264.7 cells were seeded on a 96-well plate at a density of 15000 cells per well. […] The particles were incubated for 5, 24 and 48 h.
Apoptosis (positive control) was induced by addition of staurosporine (5 μM final concentration), followed by incubation for at 37° C. for 5 h. Cytotoxicity (positive control) was induced by addition of triton X-100 (0.1% final concentration), followed by incubation at 37° C. for 15 min. Viability, cytotoxicity and apoptosis were measured using ApoTox-Glo™ assay (Promega) as per manufacturer's protocol. Datasets for each concentration and controls were collected in quadruplicates.

change of Nile Red fluorescence [1]: did not change significantly
Compound: CCN(CC)c1ccc2nc3c4ccccc4c(=O)cc-3oc2c1 [Nile red]
solubility in aqueous media [2]: < 1 µg/mL

Compound: CCCCCCCCCCCCCC(=O)O[C@@H]1[C@@H](C)[C@@]2(O)[C@@H](C=C(CO)C[C@]3(O)C(=O)C(C)=C[C@@H]23)[C@@H]2C(C)(C)[C@]12OC(C)=O [PMA, phorbol 12 myristate 13 acetate]
extracellular H2O2 produced [3]: 6.5 µM

Compound: CN[C@@H]1C[C@H]2O[C@@](C)([C@@H]1OC)n1c3ccccc3c3c4c(c5c6ccccc6n2c5c31)C(=O)NC4 [staurosporine]
apoptosis and cell viability, positive controls [4]: apoptosis and loss of cell viability was observed

Compound: Triton X-100
apoptosis and cell viability, positive controls [4]: apoptosis and loss of cell viability was observed
